How the values were obtained:
Type in all cases: in vivo
Conditions in all cases: mortality
[1] = test system: mustard beetle larvae (Phaedon cochleariae); assay: Phaedon cochleariae spray test (Example A3, Chinese cabbage leaf disks)
Description: (§1) To produce a suitable preparation of active compound, 1 part by weight of active compound is mixed with the stated amount of solvents and is diluted with water, containing an emulsifier concentration of 1000 ppm, to the desired concentration. Further test concentrations are prepared by dilution with emulsifier containing water.
Chinese cabbage (Brassica pekinensis) leaf disks are sprayed with a preparation of the active ingredient of the desired concentration. Once dry, the leaf disks are infested with mustard beetle larvae (Phaedon cochleariae).
(§2) After the specified period of time, mortality in % is determined 100% means all beetle larvae have been killed and 0% means none of the beetle larvae have been killed. The mortality values determined thus are recalculated using the Colby-formula (see sheet 1).

[2] = test system: caterpillars of the fall army worm (Spodoptera frugiperda); assay: Spodoptera frugiperda spray test (Example C1, cotton leaves)
Description: (§3) Solvent: 7 parts by weight of dimethylformamide
(§4) Emulsifier: alkylaryl polyglycol ether
as §1, with “solvent” for “solvents”, “water Ammonium salt and/or penetration enhancer in a dosage of 1000 ppm are added if necessary.” for “water.”
Cotton leaves (Gossypium hirsutum) are treated by being sprayed with the preparation of the active compound of the desired concentration and are infested with caterpillars of the fall army worm (Spodoptera frugiperda).
After the specified period of time mortality in % is determined. 100% means all the caterpillars have been killed and 0% means none of the caterpillars have been killed. The mortality values determined thus are recalculated using the Colby-formula (see sheet 1).

[3] = test system: fall armyworm larvae (Spodoptera frugiperda); assay: Spodoptera frugiperda spray test (Example C2, maize leaf sections)
Description: as §1
(§5) Maize (Zea mays) leaf sections are sprayed with a preparation of the active ingredient of the desired concentration. Once dry, the leaf sections are infested with fall armyworm larvae (Spodoptera frugiperda).
(§6) After the specified period of time, mortality in % is determined 100% means all caterpillars have been killed and 0% means none of the caterpillars have been killed. The mortality values determined thus are recalculated using the Colby-formula (see sheet 1).

[4] = test system: mustard beetle larvae (Phaedon cochleariae); assay: Phaedon cochleariae spray test (Example A2, cabbage leaves)
Description: as §3, §4
as §1, with “solvent” for “solvents”, “water Ammonium salt and/or penetration enhancer in a dosage of 1000 ppm are added to the desired concentration if necessary.” for “water.”
Cabbage leaves (Brassica oleracea) are treated by being sprayed with the preparation of the active compound of the desired concentration and are infested with mustard beetle larvae (Phaedon cochleariae).
After the specified period of time mortality in % is determined. 100% means all the beetle larvae have been killed and 0% means none of the beetle larvae have been killed. The mortality values determined thus are recalculated using the Colby-formula (see sheet 1).

[5] = test system: two spotted spidermite (Tetranychus urticae); assay: Tetranychus urticae spray test, OP-resistant (Example B, French beans)
Description: (§7) To produce a suitable preparation of active compound, 1 part by weight of active compound is mixed with the stated amount of solvent and emulsifier, and the concentrate is diluted with emulsifier-containing water to the desired concentration. To produce a suitable preparation of a spore suspension the spores are diluted with emulsifier-containing water to the desired concentration.
French beans (Phaseolus vulgaris) which are heavily infested with all stages of the two spotted spidermite (Tetranychus urticae), are sprayed with a preparation of the active ingredient of the desired concentration.
After the specified period of time, mortality in % is determined 100% means all spider mites have been killed and 0% means none of the spider mites have been killed. The mortality values determined thus are recalculated using the Colby-formula (see sheet 1).

[6] = test system: mustard beetle larvae (Phaedon cochleariae); assay: Phaedon cochleariae spray test (Example A1, Chinese cabbage leaf disks)
Description: as §7
Chinese cabbage (Brassica pekinensis) leaf-disks are sprayed with a preparation of the active ingredient of the desired concentration. Once dry, the leaf disks are infested with mustard beetle larvae (Phaedon cochleariae).
as §2

[7] = test system: fall armyworm larvae (Spodoptera frugiperda); assay: Spodoptera frugiperda spray test (Example C3, maize leaf sections)
Description: as §7, with “preparation of the active compound,” for “preparation of active compound,”
as §5, §6

Question: For `COC(=O)N(C(=O)N1CO[C@@]2(C(=O)OC)Cc3cc(Cl)ccc3C2=N1)c1ccc(OC(F)(F)F)cc1` [Indoxacarb], which “Efficacy in % after 6 d” value ([1]; 4 g ai/ha) is on record?
Answer: 0%

Question: What about the “Efficacy in % after 2 d” value ([1]; 8 g ai/ha) of the same compound?
Answer: 50%

Question: What about the “Efficacy in % after 6 d” value ([1]; 8 g ai/ha) of the same compound?
Answer: 50%

Question: And the “Efficacy in % after 2 d” value ([2]; 0.2 ppm)?
Answer: 10%

Question: What about the “Efficacy in % after 3 d” value ([2]; 0.2 ppm) of the same compound?
Answer: 20%

Question: What about the “Efficacy in % after 2 d” value ([3]; 0.1 g ai/ha) of the same compound?
Answer: 0%

Question: What about the “Efficacy in % after 6 d” value ([3]; 0.1 g ai/ha) of the same compound?
Answer: 0%

Question: `CCOCn1c(-c2ccc(Cl)cc2)c(C#N)c(Br)c1C(F)(F)F` [Chlorfenapyr] was tested. Which “Efficacy in % after 6 d” value ([1]; 4 g ai/ha) did it give?
Answer: 0%

Question: What about the “Efficacy in % after 3 d” value ([2]; 0.8 ppm) of the same compound?
Answer: 0%

Question: What about the “Efficacy in % after 2 d” value ([2]; 1.6 ppm) of the same compound?
Answer: 0%

Question: What about the “Efficacy in % after 2 d” value ([4]; 4 ppm) of the same compound?
Answer: 20%

Question: What about the “Efficacy in % after 1 d” value ([4]; 8 ppm) of the same compound?
Answer: 5%

Question: With `O=C(NC(=O)c1c(F)cccc1F)Nc1cc(Cl)c(Oc2ncc(C(F)(F)F)cc2Cl)c(Cl)c1` [Chlorfluazuron] as the compound, how does the “Efficacy in % after 6 d” value ([1]; 8 g ai/ha) read?
Answer: 0%

Question: What about the “Efficacy in % after 2 d” value ([2]; 0.4 ppm) of the same compound?
Answer: 0%

Question: And the “Efficacy in % after 3 d” value ([2]; 0.4 ppm)?
Answer: 30%

Question: What about the “Efficacy in % after 2 d” value ([3]; 2 g ai/ha) of the same compound?
Answer: 0%

Question: What about the “Efficacy in % after 6 d” value ([3]; 2 g ai/ha) of the same compound?
Answer: 0%

Question: What does the source list for `Cc1cc(C(F)(C(F)(F)F)C(F)(F)F)ccc1NC(=O)c1cccc(Cl)c1C(=O)NC(C)(C)C#N` [(I-5)]?
Answer: Efficacy in % after 6 d ([1]; 2 g ai/ha): 0%; Efficacy in % after 2 d ([1]; 4 g ai/ha): 0%; Efficacy in % after 6 d ([1]; 4 g ai/ha): 0%; Efficacy in % after 6 d ([5]; 2 g ai/ha): 0%; Efficacy in % after 6 d ([5]; 4 g ai/ha): 0%; Efficacy in % after 6 d ([5]; 10 g ai/ha): 0%; Efficacy in % after 6 d ([6]; 4 g ai/ha): 0%; Efficacy in % after 2 d ([2]; 0.04 ppm): 0%; Efficacy in % after 3 d ([2]; 0.04 ppm): 0%; Efficacy in % after 2 d ([2]; 0.08 ppm): 10%; Efficacy in % after 3 d ([2]; 0.08 ppm): 20%; Efficacy in % after 6 d ([7]; 0.25 g ai/ha): 0%; Efficacy in % after 6 d ([7]; 3 g ai/ha): 33%; Efficacy in % after 2 d ([3]; 1 g ai/ha): 0%; Efficacy in % after 6 d ([3]; 1 g ai/ha): 33%; Efficacy in % after 2 d ([4]; 0.8 ppm): 0%; Efficacy in % after 1 d ([4]; 1.6 ppm): 0%

Question: For `CCOC(=O)OC1=C(c2cc(C)ccc2C)C(=O)N[C@]12CC[C@@H](OC)CC2` [Spirotetramat], which “Efficacy in % after 6 d” value ([5]; 0.8 g ai/ha) is on record?
Answer: 30%

Question: And the “Efficacy in % after 6 d” value ([5]; 2 g ai/ha)?
Answer: 20%

Question: What about the “Efficacy in % after 6 d” value ([6]; 0.8 g ai/ha) of the same compound?
Answer: 0%

Question: And the “Efficacy in % after 6 d” value ([7]; 15 g ai/ha)?
Answer: 0%

— patent US9549552B2, “Active compound combinations having insecticidal properties” (BAYER CROPSCIENCE AKTIENGESELLSCHAFT, priority 2013, dated 2017)
